Test results reported in patent US10144761B2, “Chiral specific boron-containing compounds and their use in treating cancer or amyloidosis” (HANLIN SCIENTIFIC, INC., priority 2015, dated 2018).
Read-outs that look alike come from different tables or passages of the source.

Key:
[1] = test system: MM1.S cells; assay: Cell viability assay (MTS assay); assay type: cell-based
Experimental: Cell Viability Assay 1. Cell Line
The multiple myeloma cell line MM1.S was obtained from the ATCC.
Eight thousand MM1.S cells per well were seeded in tissue culture-treated 96-well plate (Nunc) and incubated overnight.
Each well had the same DMSO concentration of 0.05%.
The effects of compounds on cell viability were assessed using CellTiter 96®A Queous One solution Reagent (Promega; G3580).
After being treated with various compounds for 72 hrs, cells in the 96-well plate were centrifuged 1000 rpm for 3 minutes, and 180 ul supernatant were removed from each well. Cells were incubated with 20 ul CellTiter 96®A Queous One solution Reagent and put into incubator with 5% CO2. at 37° C. for an additional 4 hrs. The absorbance was measured at 490 nm with Automatic Microplate reader (Infinite M1000 pro, Tecan). […] Four sets of experiments for each drug combinations were carried out. Cell viability (Percentage of Cell Survival) was calculated by the following formula: cell viability (%)=(average absorbance of treated group-average absorbance of blank)/(average absorbance of untreated group−average absorbance of blank)×100%. IC50 values were calculated using Prism software.

[2] = Stability study (three storage/solution conditions, by RP-HPLC); assay type: physicochemical; set-up: key to Stability, Room Temp Dry / Stability, 30° C./65% Humidity / Stability, 37° C. H2O/pH 7.4: “+” meaning stable; “−” meaning quickly degradable; conditions: for Stability, Room Temp Dry: room temperature (20° C.) under inert dry gas, determined by RP-HPLC; for Stability, 30° C./65% Humidity: sealed with double bags in stability chamber
Experimental: Compounds were tested for their stability, under three different conditions (see Table 2), by the following procedures: • 1. Room Temperature and Dry: compounds were left at the room temperature (20° C.) under inert dry gas; • 2. 30° C. and 65% Humidity: compounds sealed with double bags were put into a stability chamber. Temperature was set at 30° C. while the humidity was controlled at 65%. • 3. 37° C. pH=7.4 solution: compounds were dissolved in PBS solution and then the entire solution was submerged under a 37° C. water bath.

[3] = MM1.S cells, 72 hrs treatment, MTS assay
[4] = MM1.S cells, 72 hrs treatment, MTS assay, n=4, read-out: IC50
[5] = dissolved in PBS solution, 37° C. water bath, RP-HPLC
[6] = Homo sapiens, MM1.S, 72 h, MM1.S cells, 72 hrs treatment, MTS assay, n=4, read-out: IC50

IC50 [1, 4] [nM] | Stability, Room Temp Dry [2] | Stability, 30° C./65% Humidity ([2]; RP-HPLC) | IC50 [1, 6] [nM] | Stability, 37° C. H2O/pH 7.4 (result in words) [2, 5] | SMILES | Cytotoxic effects on MM1.S cells (in words) [1, 3] | Stability, 37° C. H2O/pH 7.4 [2, 5] | IC50 ([1]; Homo sapiens, MM1.S, 72 h) [nM]
1.76 |  |  |  |  | CC(C)C[C@H](NC(=O)[C@H](Cc1ccccc1)NC(=O)c1cnccn1)B(O)O [Bortezomib, reference compound] | strong cytotoxic effects |  | 
 | − |  |  |  | CC(C)C[C@H](NC(=O)[C@H](Cc1ccccc1)NC(=O)c1cnccn1)B(O)O [HL01-0, [(1R)-3-methyl-1-[[(2S)-1-oxo-3-phenyl-2[(pyrazinylcarbonyl)amino]propyl]amino]butyl] boronic acid, reference compound] |  |  | 
1.62 | + | + | ~2 |  | CC(C)C[C@H](NC(=O)[C@H](Cc1ccccc1)NC(=O)c1cnccn1)[B-]12OC(=O)C[N+]1(C)CC(=O)O2 (stereo partly drawn) [HL01-11] | strong cytotoxic effects | + | 
 | + | − | 9.45 | Decompose Instant | CC(C)C[C@H](NC(=O)CNC(=O)c1cc(Cl)ccc1Cl)B(O)O [HL01-17] |  |  | 

SMILES | IC50 [1, 4] [nM] | Stability, Room Temp Dry [2] | Stability, 30° C./65% Humidity ([2]; RP-HPLC) | IC50 [1, 6] [nM] | Stability, 37° C. H2O/pH 7.4 (result in words) [2, 5] | Cytotoxic effects on MM1.S cells (in words) [1, 3] | Stability, 37° C. H2O/pH 7.4 [2, 5] | IC50 ([1]; Homo sapiens, MM1.S, 72 h) [nM]
CC(C)C[C@H](NC(=O)CNC(=O)c1cc(Cl)ccc1Cl)[B-]12OC(=O)C[N+]1(C)CC(=O)O2 (stereo partly drawn) [HL01-15] |  | + | + |  |  | weaker than the other compounds | + | 6.85
